According to US20080234333A1, “Novel Hydroxamic Acid Derivative as Peptide Deformylase Inhibitor and Manufacturing Method Thereof” (priority 2005, published 2008):
Converted amounts (≈) assume the structure as drawn. Like-named read-outs stand apart in the source and are kept apart here.

Key:
[1] = Acute toxicity study in mice; conditions: male, mouse, in vivo, 4000 mg/kg; ICR mice (♂, 4 weeks), oral 4,000 mg/kg dose, observed for 14 days
Experimental: The acute toxicity of the compounds of Example 7, 13, 18 and 47 were tested using several groups of ICR mice each of 6 mice.

[2] = test system: Vancomycin-resistant Enterococcus faecalis; assay: MIC, microdilution method in 96-well plates; assay type: cell-based; conditions: read-out: MIC Vancomycin-resistant Enterococcus faecalis
Experimental: (§1) Minimum inhibitory concentrations (MICs) were determined using the microdilution method in 96-well format plates. Each of the compounds of Examples was dissolved in dimethyl sulfoxide to a concentration of 2 mg/mL and stored at 4° C. until used. They were diluted in Mueller-Hinton Broth (MHB) and used for MIC determination. The range of concentrations tested was […] final concentration using a two-fold dilution system. Plates were incubated at 37° C. and MIC were recorded after 24 hours of incubation for bacteria.
(§2) Linezolid and vancomycin were used as standard antibiotics, respectively.

Streptococcus agalactiae = assay: MIC, microdilution method in 96-well plates; assay type: cell-based; conditions: read-out: MIC Streptococcus agalactiae
Experimental: as §1, §2

[3] = test system: Methicillin-resistant Staphylococcus aureus; assay: MIC, microdilution method in 96-well plates; assay type: cell-based; conditions: read-out: MIC Methicillin-resistant Staphylococcus aureus
Experimental: as §1, §2

Streptococcus pneumoniae = assay: MIC, microdilution method in 96-well plates; assay type: cell-based; conditions: read-out: MIC Streptococcus pneumoniae
Experimental: as §1, §2

Streptococcus pyogenes = assay: MIC, microdilution method in 96-well plates; assay type: cell-based; conditions: read-out: MIC Streptococcus pyogenes
Experimental: as §1, §2

[4] = Mueller-Hinton Broth, 37° C., 24 hours of incubation

SMILES | MIC [2, 4] [µg/mL] | MIC (Streptococcus agalactiae; [4]) [µg/mL] | MIC [3, 4] [µg/mL] | MIC (Streptococcus pneumoniae; [4]) [µg/mL] | MIC (Streptococcus pyogenes; [4]) [µg/mL] | LD50 at 14 days [1] [mg/kg] | MIC ([2]; 24 h) [µg/mL] | MIC (Streptococcus agalactiae; 24 h) [µg/mL] | MIC ([3]; 24 h) [µg/mL] | MIC (Streptococcus pneumoniae; 24 h) [µg/mL] | MIC (Streptococcus pyogenes; 24 h) [µg/mL]
CC(C)C[C@H](CC(=O)NO)C(=O)N[C@H](C(=O)N1CCC(NC(=O)Cc2ccccc2)CC1)C(C)(C)C [Example 7, (R)-N^1-[(S)-2,2-Dimethyl-1-(4-phenylacetylamino-piperidine-1-carbonyl)-propyl]-N^4-hydroxy-2-isobutyl-succinamide] |  |  |  |  |  | > 4000 |  |  |  |  | 
CCCC[C@H](CC(=O)NO)C(=O)N[C@H](C(=O)N1CCC(NC(=O)c2ccc(C)cc2)CC1)C(C)(C)C [Example 18, (R)-2-Butyl-N^1-{(S)-2,2-dimethyl-1-[4-(4-methyl-benzoylamino)-piperidine-1-carbonyl]-propyl}-N^4-hydroxy-succinamide] |  |  |  |  |  | > 4000 |  |  |  |  | 
Cc1ccc(NC(=O)NC2CCN(C(=O)[C@@H](NC(=O)[C@H](CC3CCCC3)CN(O)C=O)C(C)(C)C)CC2)cc1 [Example 47, (R)-2-Cyclopentylmethyl-N-{(S)-2,2-dimethyl-1-[4-(3-p-tolyl-ureido)-piperidine-1-carbonyl]-propyl}-3-(formyl-hydroxy-amino)-propionamide] |  |  |  |  |  | > 4000 |  |  |  |  | 
CC(C)(C)[C@H](NC(=O)[C@H](CC1CCCC1)CN(O)C=O)C(=O)N1CCC(NC(=O)Nc2ccc(C(F)(F)F)cc2)CC1 [Example 48, (R)-2-Cyclopentylmethyl-N-((S)-2,2-dimethyl-1-{4-[3-(4-trifluoromethyl-phenyl)-ureido)-piperidine-1-carbonyl}-propyl)-3-(formyl-hydroxy-amino)-propionamide] | 3.1 (≈ 5.19 µM) | 0.2 (≈ 0.335 µM) | 6.3 (≈ 10.5 µM) | 1.6 (≈ 2.68 µM) | 0.2 (≈ 0.335 µM) |  |  |  |  |  | 
CC(C)(C)[C@H](NC(=O)[C@@H](CC(=O)NO)CC1CCCC1)C(=O)N1CCC(NC(=O)c2ccc(C(F)(F)F)cc2)CC1 [Example 13, (R)-2-Cyclopentylmethyl-N^1-{(S)-2,2-dimethyl-1-[4-(4-trifluoromethyl-benzoylamino)-piperidine-1-carbonyl]-propyl}-N^4-hydroxy-succinamide] | 6.3 (≈ 10.8 µM) | 0.2 (≈ 0.343 µM) | 12.5 (≈ 21.5 µM) | 3.1 (≈ 5.32 µM) | 0.4 (≈ 0.687 µM) | > 4000 |  |  |  |  | 
CN[C@H](CC(C)C)C(=O)N[C@H]1C(=O)N[C@@H](CC(N)=O)C(=O)N[C@H]2C(=O)N[C@H]3C(=O)N[C@H](C(=O)N[C@H](C(=O)O)c4cc(O)cc(O)c4-c4cc3ccc4O)[C@H](O)c3ccc(c(Cl)c3)Oc3cc2cc(c3O[C@@H]2O[C@H](CO)[C@@H](O)[C@H](O)[C@H]2O[C@H]2C[C@](C)(N)[C@H](O)[C@H](C)O2)Oc2ccc(cc2Cl)[C@H]1O [Vancomycin, reference compound] |  |  |  |  |  |  | > 100 | 1.6 (≈ 1.1 µM) | 3.1 (≈ 2.14 µM) | 0.8 (≈ 0.552 µM) | 0.8 (≈ 0.552 µM)
COc1ccc(C(=O)NC2CCN(C(=O)[C@@H](NC(=O)[C@H](CC3CCCC3)CN(O)C=O)C(C)(C)C)CC2)cc1 [Example 39, N-(1-{(S)-2-[(R)-2-Cyclopentylmethyl-3-(formyl-hydroxy-amino)-propionylamino]-3,3-dimethyl-butyryl}-piperidin-4-yl)-4-methoxy-benzamide] | 6.3 (≈ 11.6 µM) | 0.2 (≈ 0.367 µM) | 12.5 (≈ 22.9 µM) | 3.1 (≈ 5.69 µM) | 0.2 (≈ 0.367 µM) |  |  |  |  |  | 
CC(C)(C)[C@H](NC(=O)[C@H](CC1CCCC1)CN(O)C=O)C(=O)N1CCC(NS(=O)(=O)c2ccc(C(F)(F)F)cc2)CC1 [Example 50, (R)-2-Cyclopentylmethyl-N-{(S)-2,2-dimethyl-1-[4-(4-trifluoromethyl-benzenesulfonylamino)-piperidine-1-carbonyl]-propyl}-3-(formyl-hydroxy-amino)-propionamide] | 3.1 (≈ 5.01 µM) | 0.4 (≈ 0.646 µM) | 6.3 (≈ 10.2 µM) | 1.6 (≈ 2.59 µM) | 0.4 (≈ 0.646 µM) |  |  |  |  |  | 
CC(C)(C)[C@H](NC(=O)[C@H](CC1CCCC1)CN(O)C=O)C(=O)N1CCC(NC(=O)c2cc(F)c(F)cc2F)CC1 [Example 44, N-(1-{(S)-2-[(R)-2-Cyclopentylmethyl-3-(formyl-hydroxy-amino)-propionylamino]-3,3-dimethyl-butyryl}-piperidin-4-yl)-2,4,5-trifluoro-benzamide] | 3.1 (≈ 5.45 µM) | 0.2 (≈ 0.352 µM) | 3.1 (≈ 5.45 µM) | 1.6 (≈ 2.81 µM) | 0.2 (≈ 0.352 µM) |  |  |  |  |  | 
CC(C)(C)[C@H](NC(=O)[C@H](CC1CCCC1)CN(O)C=O)C(=O)N1CCC(NC(=O)c2ccc(F)cc2)CC1 [Example 30, N-(1-{(S)-2-[(R)-2-Cyclopentylmethyl-3-(formyl-hydroxy-amino)-propionylamino]-3,3-dimethyl-butyryl}-piperidin-4-yl)-4-fluoro-benzamide] | 6.3 (≈ 11.8 µM) | 0.2 (≈ 0.375 µM) | 6.3 (≈ 11.8 µM) | 1.6 (≈ 3 µM) | 0.2 (≈ 0.375 µM) |  |  |  |  |  | 
Cc1ccc(C(=O)NC2CCN(C(=O)[C@@H](NC(=O)[C@H](CC3CCCC3)CN(O)C=O)C(C)(C)C)CC2)cc1 [Example 38, N-(1-[(S)-2-[(R)-2-Cyclopentylmethyl-3-(formyl-hydroxy-amino)-propionylamino]-3,3-dimethyl-butyryl}-piperidin-4-yl)-4-methyl-benzamide] | 3.1 (≈ 5.86 µM) | 0.1 (≈ 0.189 µM) | 6.3 (≈ 11.9 µM) | 1.6 (≈ 3.03 µM) | 3.1 (≈ 5.86 µM) |  |  |  |  |  | 

The next lines start with results.

MIC [2, 4] [µg/mL] | MIC (Streptococcus agalactiae; [4]) [µg/mL] | MIC [3, 4] [µg/mL] | MIC (Streptococcus pneumoniae; [4]) [µg/mL] | MIC (Streptococcus pyogenes; [4]) [µg/mL] | SMILES | LD50 at 14 days [1] [mg/kg] | MIC ([2]; 24 h) [µg/mL] | MIC (Streptococcus agalactiae; 24 h) [µg/mL] | MIC ([3]; 24 h) [µg/mL] | MIC (Streptococcus pneumoniae; 24 h) [µg/mL] | MIC (Streptococcus pyogenes; 24 h) [µg/mL]
12.5 (≈ 23.6 µM) | 0.4 (≈ 0.757 µM) | 25 (≈ 47.3 µM) | 0.8 (≈ 1.51 µM) | 0.4 (≈ 0.757 µM) | Cc1ccc(C(=O)NC2CCN(C(=O)[C@@H](NC(=O)[C@@H](CC(=O)NO)CC3CCCC3)C(C)(C)C)CC2)cc1 [Example 20, (R)-2-Cyclopentylmethyl-N^1-{(S)-2,2-dimethyl-1-[4-(4-methyl-benzoylamino)-piperidine-1-carbonyl]-propyl}-N^4-hydroxy-succinamide] |  |  |  |  |  | 
0.8 (≈ 2.37 µM) | 1.6 (≈ 4.74 µM) | 1.6 (≈ 4.74 µM) | 0.8 (≈ 2.37 µM) | 0.8 (≈ 2.37 µM) | CC(=O)NC[C@H]1CN(c2ccc(N3CCOCC3)c(F)c2)C(=O)O1 [Linezolid, reference compound] |  |  |  |  |  | 
6.3 (≈ 11.8 µM) | 0.2 (≈ 0.375 µM) | 6.3 (≈ 11.8 µM) | 6.3 (≈ 11.8 µM) | 0.2 (≈ 0.375 µM) | CC(C)(C)[C@H](NC(=O)[C@@H](CC(=O)NO)CC1CCCC1)C(=O)N1CCC(NC(=O)c2ccc(F)cc2)CC1 [Example 15, (R)-2-Cyclopentylmethyl-N^1-{(S)-1-[4-(4-fluoro-benzoylamino)-piperidine-1-carbonyl]-2,2-dimethyl-propyl}-N^4-hydroxy-succinamide] |  |  |  |  |  | 
3.1 (≈ 5.74 µM) | 0.1 (≈ 0.185 µM) | 3.1 (≈ 5.74 µM) | 1.6 (≈ 2.96 µM) | 0.1 (≈ 0.185 µM) | CC(C)(C)[C@H](NC(=O)[C@H](CC1CCCC1)CN(O)C=O)C(=O)N1CCC(NC(=O)c2ccc(C#N)cc2)CC1 [Example 29, 4-Cyano-N-(1-{(S)-2-[(R)-2-cyclopentylmethyl-3-(formyl-hydroxy-amino)-propionylamino]-3,3-dimethyl-butyryl}-piperidin-4-yl)benzamide] |  |  |  |  |  | 
6.3 (≈ 12.2 µM) | 0.1 (≈ 0.194 µM) | 12.5 (≈ 24.3 µM) | 6.3 (≈ 12.2 µM) | 0.4 (≈ 0.777 µM) | CC(C)(C)[C@H](NC(=O)[C@H](CC1CCCC1)CN(O)C=O)C(=O)N1CCC(NC(=O)c2ccccc2)CC1 [Example 25, N-(1-{(S)-2-[(R)-2-Cyclopentylmethyl-3-(formyl-hydroxy-amino)-propionylamino]-3,3dimethyl-butyryl}-piperidin-4-yl)-benzamide] |  |  |  |  |  | 
50 (≈ 94.6 µM) | 0.2 (≈ 0.378 µM) | 50 (≈ 94.6 µM) | 50 (≈ 94.6 µM) | 0.8 (≈ 1.51 µM) | CC(C)(C)[C@H](NC(=O)[C@@H](CC(=O)NO)CC1CCCC1)C(=O)N1CCC(NC(=O)Cc2ccccc2)CC1 [Example 10, (R)-2-Cyclopentylmethyl-N^1-[(S)-2,2-dimethyl-1-(4-phenylacetylamino-piperidine-1-carbonyl)-propyl]-N^4-hydroxy-succinamide] |  |  |  |  |  | 
6.3 (≈ 10.8 µM) | 0.1 (≈ 0.172 µM) | 3.1 (≈ 5.32 µM) | 1.6 (≈ 2.75 µM) | 3.1 (≈ 5.32 µM) | CC(C)(C)[C@H](NC(=O)[C@H](CC1CCCC1)CN(O)C=O)C(=O)N1CCC(NC(=O)c2ccc(C(F)(F)F)cc2)CC1 [Example 28, N-(1-{(S)-2-[(R)-2-Cyclopentylmethyl-3-(formyl-hydroxy-amino)-propionylamino]-3,3-dimethyl-4-butyryl}-piperidin-4-yl)-4-trifluoromethyl-benzamide] |  |  |  |  |  | 
25 (≈ 48.6 µM) | 1.6 (≈ 3.11 µM) | 12.5 (≈ 24.3 µM) | 6.3 (≈ 12.2 µM) | 1.6 (≈ 3.11 µM) | CC(C)(C)[C@H](NC(=O)[C@@H](CC(=O)NO)CC1CCCC1)C(=O)N1CCC(NC(=O)c2ccccc2)CC1 [Example 8, (R)-N^1-[(S)-1-(4-Benzoylamino-piperidine-1-carbonyl)-2,2-dimethyl-propyl]-2-cyclopentylmethyl-N^4-hydroxy-succinamide] |  |  |  |  |  | 
3.1 (≈ 5.9 µM) | 0.4 (≈ 0.761 µM) | 6.3 (≈ 12 µM) | 1.6 (≈ 3.04 µM) | 0.4 (≈ 0.761 µM) | CC(C)[C@H](NC(=O)[C@H](CC1CCCC1)CN(O)C=O)C(=O)N1CCC(NC(=O)c2ccc(C#N)cc2)CC1 [Example 41, 4-Cyano-N-(1-{(S)-2-[(R)-2-cyclopentylmethyl-3-(formyl-hydroxy-amino)-propionylamino]-3-methyl-butyryl}-piperidin-4-yl)benzamide] |  |  |  |  |  | 
